Measured values from patent publication US20240247207A1, “MALTOSIDE-, LACTOBIONAMIDE-, MONOGLUCOSIDE-, BRANCHED DIGLUCOSIDE-, SULFOBETAINE-, SULFATE- OR AMINOOXIDE-BASED PERFLUORINATED DETERGENTS AND THEIR USE IN MEMBRANE-PROTEINS APPLICATIONS” (AVIGNON UNIVERSITE, priority 2021, published 2024).
“Also recorded” adds a separate entry of the source.

How the values were obtained:
[1] = SFT for CMC determination (surface tension, Wilhelmy plate technique); assay type: physicochemical; conditions: air/water interface, (20.0±0.5)° C.
Description: SFT for CMC determination. The surface activity of the compounds of the invention in solution at the air/water interface was determined using a K100 tensiometer (Kruss, Hamburg, Germany). Surface tensions were determined by dilution of stock solutions (13 g/L for compound 5a (cyF6H3Malt), 4.6 g/L for compound 5b (cyF6H4Malt), 2 g/L for compound 5c (cyF6H5Malt), 10 g/L for compound 8a (isoF5H3Malt), 1.7 g/L for compound 8c (isoF5H5Malt) and 0.4 g/L for compound 8b (isoF7H3Malt), ˜4×CMC) using the Wilhelmy plate technique. In a typical experiment, 13 concentration steps were prepared from solutions equilibrated overnight before measurement. All measurements were performed at (20.0±0.5)° C. until standard deviation reach ±0.05 or during at least 30 min.

[2] = test system: membrane-proteins from native E. coli membranes; experiment: Extraction of membrane-proteins from native E. coli membranes, SDS-PAGE quantification; conditions: for membrane-protein extraction / solubilization efficiency (in words): CMC+1, 2, 5, 10 mM, at least 16 h at 20° C., yields relative to buffer without detergent
Description: Solubilization of Membrane-Proteins from native E. coli membranes. E. coli BL21(DE3) cells were transformed with an empty pET-24 vector and selected by kanamycin resistance. After incubation in 400 mL lysogeny broth overnight at 37° C. under constant agitation (150 rpm), cells were harvested by centrifugation and washed twice with saline (154 mM NaCl). Cell pellets were resuspended in ice-cold buffer (100 mM Na2CO3, pH 11.5) and subjected to ultrasonication in an S-250A sonifier (Branson Ultrasonics, Danbury, USA) twice for 10 min each. To remove cell debris, the lysate was centrifuged at 4° C. for 20 min at 7149 rpm (3000 g). The supernatant was ultracentrifuged at 4° C. for 1 h at 31 400 rpm (100,000 g) to separate membrane fragments from soluble and peripheral proteins. Membrane pellets were washed and suspended in working buffer, ultracentrifuged again at 4° C. for 1 h at 31 400 rpm (100,000 g) to remove any residual soluble or peripheral proteins. The resulting pellets were resuspended in buffer (50 mM Tris, 200 mM NaCl, pH 7.4) to a final concentration of 100 mg wet-weight pellet per 1 mL of buffer and mixed in a 1:1 volume ratio with stock solutions of the compounds of the invention in buffer. All samples were incubated for at least 16 h at 20° C. under constant, gentle agitation (500 rpm) and subsequently ultracentrifuged at 4° C. for 1 h at 51 000 rpm (100,000 g). The solubilized supernatant containing micelles was analyzed using SDS-PAGE.
Sodium dodecyl sulphate polyacrylamide gel electrophoresis (SDS-PAGE). The solubilization efficiency of compound 5a, F6OM, F6OPC and DDM on biological membranes was assessed by SDS-PAGE using a NuPAGE Bis-Tris system (Life Technologies, Carlsbad, USA) with a polyacrylamide gradient of 4-12%. 14-μL samples were mixed with 5 μL 4×SDS sample buffer (106 mM Tris HCl, 141 mM Tris base, 2% (w v) SDS, 10% (w v) glycerol, 0.51 mM EDTA, 0.22 mM SERVA Blue G250, and 0.175 mM Phenol Red, pH 8.5) and 1 μL 1 M dithiothreitol (DTT) and boiled at 95° C. for 10 min. 12 μL of each sample was loaded on a ready-to-use NuPAGE. As reference, a standard-weight marker (Roti-Mark 10-150, Carl Roth, Karlsruhe, Germany) was used, and the working buffer was used as negative control. […] For quantification of solubilization efficiencies, gels were photographed with a C4000Z camera (Olympus, Tokyo, Japan), and protein bands were analyzed with ImageJ software.
Results. The intensities (i.e., pixel counts) of SDS-PAGE band patterns (FIG. 2) were analyzed to provide the overall protein-extraction yields which were expressed relative to the buffer without any detergent.

[3] = 100 μM POPC LUVs, detergent at CMC+ca. 5 mM, 25° C., light scattering at 90°
Description: Preparation of lipid vesicles. To prepare LUVs, POPC in powder form was weighed on a high-precision XP Delta Range microbalance (Mettler Toledo, Greifensee, Switzerland) and suspended in phosphate buffer (10 mM Na2HIPO4/NaH2PO4, 150 mM NaCl, pH 7.4). The solution was vortexed for 15 min at room temperature and extruded in a LiposoFast extruder (Avestin, Mannheim, Germany) with at least 35 extrusion steps through two stacked polycarbonate membranes with a pore diameter of 100 nm (Avestin). The hydrodynamic diameter of the LUVs was distributed around 120-130 nm, as shown by DLS.
Kinetics of vesicle solubilization. For vesicle solubilization kinetics, measurements were conducted by adding a high concentration (ca. 5 mM) of the compound of the invention above its CMC to 100 μM POPC LUVs in a 3 mm×3 mm quartz glass cuvette. […] Measurements were started immediately after mixing the vesicle suspension to monitor changes in light scattering intensity, Iscatter at an angle of 90° and at 25° C.
The solubilization of preformed large unilamellar vesicles (LUVs) composed of the singly unsaturated phospholipid 1-palmitoyl-2-oleyl-sn-glycero-3-phosphocholine (POPC) was investigated.

[4] = literature value; cited from earlier work

Structure (SMILES) | CMC (critical micellar concentration) [1] | γCMC (surface tension at the CMC) [1] | membrane-protein extraction / solubilization efficiency (in words) [2] | solubilization efficiency at low concentrations, compared with DDM (in words) ([2]; low concentrations, CMC+1-5 mM) | time to complete solubilization of LUVs [3] | CMC [4]
OC[C@H]1O[C@H](O[C@H]2[C@H](O)[C@@H](O)[C@H](OCCCC3(F)C(F)(F)C(F)(F)C(F)(F)C(F)(F)C3(F)F)O[C@@H]2CO)[C@H](O)[C@@H](O)[C@@H]1O [Compound 5a, 3-(perfluorocyclohexyl)-propoxy-4-O—(α-D-glucopyranosyl)-β-D-glucopyranoside] | 3.47 mM | 23.9 mN/m | efficiently extracted membrane-proteins; also recorded: higher membrane-protein extraction yield than F6OM and F6OPC | better solubilization efficiencies than DDM | ~2 h | 
OC[C@H]1O[C@H](O[C@H]2[C@H](O)[C@@H](O)[C@H](OCCCCC3(F)C(F)(F)C(F)(F)C(F)(F)C(F)(F)C3(F)F)O[C@@H]2CO)[C@H](O)[C@@H](O)[C@@H]1O [Compound 5b, 4-(perfluorocyclohexyl)-butoxy-4-O—(α-D-glucopyranosyl)-β-D-glucopyranoside] | 2.29 mM | 22.7 mN/m |  |  |  | 
OC[C@H]1O[C@H](O[C@H]2[C@H](O)[C@@H](O)[C@H](OCCCCCC3(F)C(F)(F)C(F)(F)C(F)(F)C(F)(F)C3(F)F)O[C@@H]2CO)[C@H](O)[C@@H](O)[C@@H]1O [Compound 5c, 5-(perfluorocyclohexyl)-pentoxy-4-O—(α-D-glucopyranosyl)-β-D-glucopyranoside] | 0.70 mM | 23.16 mN/m |  |  |  | 
OC[C@H]1O[C@H](O[C@H]2[C@H](O)[C@@H](O)[C@H](OCCCC(F)(F)C(F)(F)C(F)(C(F)(F)F)C(F)(F)F)O[C@@H]2CO)[C@H](O)[C@@H](O)[C@@H]1O [Compound 8a, 3-(perfluoroisopentyl)-propoxy-4-O—(α-D-glucopyranosyl)-β-D-glucopyranoside] | 2.66 mM | 22.5 mN/m |  |  |  | 
OC[C@H]1O[C@H](O[C@H]2[C@H](O)[C@@H](O)[C@H](OCCCC(F)(F)C(F)(F)C(F)(F)C(F)(F)C(F)(C(F)(F)F)C(F)(F)F)O[C@@H]2CO)[C@H](O)[C@@H](O)[C@@H]1O [Compound 8b, 3-(perfluoroisoheptyl)-propoxy-4-O—(α-D-glucopyranosyl)-β-D-glucopyranoside] | 0.11 mM | 17.4 mN/m |  |  |  | 
OC[C@H]1O[C@H](O[C@H]2[C@H](O)[C@@H](O)[C@H](OCCCCCC(F)(F)C(F)(F)C(F)(C(F)(F)F)C(F)(F)F)O[C@@H]2CO)[C@H](O)[C@@H](O)[C@@H]1O [Compound 8c, 5-(perfluoroisopentyl)-pentoxy-4-O—(α-D-glucopyranosyl)-β-D-glucopyranoside] | 0.53 mM | 22.1 mN/m |  |  |  | 
O=C(NCCCC1(F)C(F)(F)C(F)(F)C(F)(F)C(F)(F)C1(F)F)C(O)[C@H](O)[C@H](O[C@@H]1OC(CO)[C@H](O)[C@H](O)C1O)C(O)CO (stereo partly drawn) [Compound 12, 3-(perfluorocyclohexyl)-N-propane Octahydroxy lactobionamide] | 6.32 mM | 24.4 mN/m |  |  |  | 
C[N+](C)(CCCCCC1(F)C(F)(F)C(F)(F)C(F)(F)C(F)(F)C1(F)F)CCCS(=O)(=O)[O-] [Compound 17, 3-(dimethyl(5-(perfluorocyclohexyl)pentyl)ammonio)propane-1-sulfonate] | 3.20 mM | 23.7 mN/m |  |  |  | 
OC[C@H]1O[C@H](O[C@H]2[C@H](O)[C@@H](O)[C@H](OCCC(F)(F)C(F)(F)C(F)(F)C(F)(F)C(F)(F)C(F)(F)F)O[C@@H]2CO)[C@H](O)[C@@H](O)[C@@H]1O [Compound F6OM, (1H, 1H, 2H, 2H-Perfluorooctyl)-β-D-Maltopyranoside, reference compound] |  |  | very limited solubilization |  |  | 0.7 mM
C[N+](C)(C)CCOP(=O)([O-])OCCC(F)(F)C(F)(F)C(F)(F)C(F)(F)C(F)(F)C(F)(F)F [Compound F6OPC, (1H, 1H, 2H, 2H-Perfluorooctyl)phosphocholine, reference compound] |  |  | very limited solubilization |  |  | 2.9 mM
CCCCCCCCCCCCO[C@@H]1O[C@H](CO)[C@@H](O[C@H]2O[C@H](CO)[C@@H](O)[C@H](O)[C@H]2O)[C@H](O)[C@H]1O [DDM, n-dodecyl-β-D-maltoside] |  |  |  |  |  | 0.17 mM
